Data published in PMC4326127, “Collagen Inhibitory Peptide R1R2 Mediates Vascular Remodeling by Decreasing Inflammation and Smooth Muscle Cell Activation” (PLoS ONE, 2015).

Assays:
VCAM-1 = VCAM-1 IHC in ligated carotid artery; assay type: in vivo, FVB/NJ (FVB) mice; conditions: 7 days after ligation; percent of positively stained area; mean ± SEM; R1R2 n = 7, control peptide n = 9
Method: (§1) Animals were anesthetized with isoflurane inhalation. The left common carotid artery was exposed, dissected free from the surrounding connective tissue and completely ligated with 6-0 silk suture just proximal to the carotid bifurcation. […] 4–10 mice were included in each experimental group.
(§2) Paraffin sections selected from the first mm of the carotid artery in each group were used for immunohistochemistry (IHC). […] Sections were then incubated with appropriate biotinylated secondary antibodies followed by avidin-biotin immunoperoxidase system (Vector Laboratories, Burlingame, CA). Liquid DAB Substrate Chromogen system (Dako, Carpinteria, CA) was used for detection.
(§3) Quantitative IHC analysis was performed on digital images captured with a 20x objective by using Image-Pro Plus software. Data from 3–6 mice for each group were averaged, and the average values ± SEM were shown. For FN, collagen type I, SM-MHC and SM α-actin, color digital images were transformed into gray scale, and the sum of the optical densities from the intima+media area in each section was determined. […] The percent of positive cells is reported as the proliferation index. […] The intima+media region was traced manually. The percent of positively stained area in intima+media to the total traced area was assessed.
(§4) For in vivo experiments, the data are shown as the mean ± SEM. […]

[1] = system: binding of FN to collagen type I; assay: Solid-phase binding assay (competitive ELISA) of FN to collagen; parameters: species or system human FN; rat collagen type I; conditions: 4 nM FN incubated with peptide at 4°C overnight, then on wells coated with 10 μg/ml collagen I overnight at 37°C; anti-FN/HRP, ABTS, A405
Method: Human FN and rat collagen type I for competitive ELISA were purchased from Sigma-Aldrich (St. Louis, MO).
The FN-peptide solutions were added to collagen or BSA-coated wells, and the plates were incubated overnight at 37°C. The wells were washed and a rabbit anti-FN antibody was added for 90 minutes at room temperature. Wells were washed and then incubated with a horseradish peroxidase-conjugated secondary antibody. After washing was completed, peroxidase activity was quantified using 2,2'-azino-bis-(3-ethylbenthiazoline-6-sulfonic acid). Measurements were done at 405 nm (A405) using a SpectraMax M5 microplate reader (Molecular Device, Sunnyvale, CA).
Bound FN was detected with an anti-FN antibody followed by HRP-conjugated secondary antibody, and ABTS as described in Methods. The absorbance at 405nm was quantitated.

collagen = assay: Hydroxyproline assay of carotid collagen content; assay type: in vivo, FVB/NJ (FVB) mice; conditions: 14 days post-ligation; three carotid arteries pooled per group; colorimetric chloramine T; mean ± SEM, n = 3
Method: as §1
After reconstituting with water, samples were measured using a colorimetric chloramine T assay. Three independent experiments were performed for statistical analysis.
(§5) For in vivo experiments, the data are shown as the mean ± SEM. For in vitro experiments, the data shown are the means ± SD of a representative experiment, at least 3 independent experiments were performed. One-way ANOVA with post-hoc testing were used for data analysis with GraphPad Prism software (GraphPad, San Diego, CA). If normality test failed, nonparametric Kruskal-Wallis test followed by Dunn's post-hoc test were used. P > 0.05 was not considered significant.

U937 cells / HUVECs [2] = assay: Monocyte U937 adhesion to HUVECs; assay type: cell-based, human; conditions: HUVECs treated with 10 ng/ml TNF-α; calcein-AM U937 5x10^5 cells/well, 30 minutes at 37°C; fluorescence 485/535; mean ± SD
Method: as §5

collagen type I = assay: IHC for collagen type I in ligated carotid artery; assay type: in vivo, FVB/NJ (FVB) mice; conditions: 7 days after surgery; 20 μM peptide in pluronic gel; mean ± SEM; R1R2 n = 6, scrambled n = 6
Method: as §1, §2, §3, §4

ICAM-1 = ICAM-1 IHC in ligated carotid artery; assay type: in vivo, FVB/NJ (FVB) mice; conditions: 7 days after ligation; percent of positively stained area; mean ± SEM; R1R2 n = 7, control peptide n = 8
Method: as §1, §2, §3, §4

A7r5 SMCs = assay: SMC migration, scrape wound assay; assay type: cell-based
Method: (§6) Human umbilical vein endothelial cells (HUVECs) and A7r5 SMCs were provided by Resource Center (SB3, NSC 100-2325-B-080-001), National Research Program for Biopharmaceuticals (Hsinchu, Taiwan). HUVECs were maintained in M199 (Life Technologies, Carlsbad, CA) with 25U/ml heparin (Sigma-Aldrich, St. Louis, MO), 10% fetal bovine serum (FBS) and endothelial cell growth supplement (ECGS; Millipore, Billerica, MA). A7r5 SMCs were grown in Dulbecco’s Modified Eagle’s Medium (DMEM) containing high glucose, supplemented with 10% fetal bovine serum. Human U937 cells were grown in RPMI1640 with 10% FBS.
A scrape wound assay was used to assess the effect of R1R2 and scrambled peptides on SMC migration as described. Briefly, A7r5 SMCs were grown until 90% confluent, followed by serum starvation and treatment with R1R2 and scrambled peptides for 36 hours. Several scrape wounds were then performed across the dish with a sterile yellow pipet tip. We initiated the experiment with treatment of cells with 10 ng/ml PDGF-BB. Photographs of the wound area were taken immediately after PDGF-BB addition (0 hour) and 30 hours postwounding with an Olympus CKX-41 microscope connected to a camera. At least three photographs were taken per group at each time point. Wound areas were determined using Image-Pro Software (Media Cybernetics, MD). Measurement of migration was determined by subtracting the cell-free area 30 hours after PDGF-BB addition from the cell-free area in the beginning of scrape wounds.
For in vivo experiments, the data are shown as the mean ± SEM. For in vitro experiments, the data shown are the means ± SD of a representative experiment, at least 3 independent experiments were performed. […]
Fig 6 R1R2 reduces SMC proliferation and migration. […] Cells were counted at the indicated time in the figure (n = 5). […] (C) Quantitation of SMC migration in the scratch wound healing assay was performed by subtracting the cell-free area 30 hours after PDGF-BB stimulation from the cell-free area in the beginning (n = 5). * indicates p<0.05 and ** p< 0.01.

[3] = system: left common carotid artery (flow-induced vascular remodeling); assay: Morphometric analysis of carotid artery after complete common carotid ligation; assay type: in vivo, FVB/NJ (FVB) mice; conditions: for EEL Area / Intima+Media / Intima/Media Ratio / Lumen: 20 μM peptide in 50 μl F-127 pluronic gel, mean ± SEM
Source text: as §1
5 groups of animals were processed for morphometric analysis. Mice were fixed with 10% formalin 7 or 14 days after the surgery. The common carotid arteries were harvested and embedded in paraffin.
as §5

HUVECs = assay: HUVEC proliferation assay; assay type: cell-based, human; conditions: at the start of the adhesion assay, versus control peptide; data not shown; in words
Method: as §6
A7r5 cells and HUVECs were growth-arrested and then stimulated with 10% FBS or 10 ng/ml TNF-αovernight after serum starvation as indicated in the figure legend. Briefly, trypan blue-excluding cells were counted with a hemocytometer, and data were analyzed using GraphPad Prism Software (San Diego, CA) as in previous studies. A second observer performed a similar analysis to verify the initial findings.

U937 cells / HUVECs [4] = assay: Monocyte U937 transendothelial migration assay; assay type: cell-based, human; conditions: HUVECs on 5um transwells, 10 ng/ml TNF-α; U937 1.5x10^5 cells/transwell, 1.5 hours at 37°C; fluorescence 485/535; mean ± SD
Method: as §5

[5] = 7 day after ligation, periadventitial, scrambled n = 4, R1R2 n = 10
[6] = 14 day after ligation, periadventitial, scrambled n = 4, R1R2 n = 9

GLNGENQKEPEQGERGEAGPPLSGLSGNNQGRPSLPGLNGENQKEPEQGERGEAGPP [R1R2]
VCAM-1 (+) area in intima-media (VCAM-1): 10.36 ± 1.802%
effect on FN-collagen type I binding [1]: blocked the binding of FN to collagen type I in a dose-dependent manner
collagen content, hydroxyproline assay (collagen): 1.522 ± 0.077
U937 adhesion to HUVECs (U937 cells / HUVECs [2]): 197697 ± 34184 cells per cm^2
collagen type I IHC intensity in intima-media area (collagen type I): 0.117 ± 0.007
ICAM-1 (+) area in intima-media (ICAM-1): 11.58 ± 2.387%
effect on SMC migration (wound healing images) (A7r5 SMCs; 30 hours post PDGF-stimulation, versus scrambled peptide, in words): cells migrated more slowly
SMC migration (cell-free area at 0 h minus cell-free area at 30 hours) (A7r5 SMCs; A7r5 SMCs, 36 hours peptide pretreatment, 10 ng/ml PDGF-BB, 30 hours, mean ± SD, n = 3): 130149 ± 53295
effect on neointimal formation ([3]; 7 and 14 days post-ligation, 20 μM peptide in pluronic gel, periadventitial, in words): dramatic attenuation in injury-induced neointimal formation
EEL Area [3, 5]: 64905 ± 3680 (n = 10) μm^2
Intima+Media [3, 5]: 29208 ± 884 (n = 10) μm^2
Intima/Media Ratio [3, 5]: 0.0424 ± 0.0133 (n = 10)
Lumen [3, 5]: 32038 ± 2870 (n = 10) μm^2
effect on intima-media area, EEL area and intimal/medial ratio ([3]; 7 days and 14 days after ligation, compared to the control mice, in words): significantly reduced intima-media areas (Intima + Media), EEL area and intimal/medial ratios
EEL Area [3, 6]: 51482 ± 4981 (n = 9) μm^2
Intima+Media [3, 6]: 25706 ± 1220 (n = 9) μm^2
Intima/Media Ratio [3, 6]: 0.0709 ± 0.0231 (n = 9)
Lumen [3, 6]: 25776 ± 4286 (n = 9) μm^2
effect on lumenal area ([3]; day 7 and 14 after injury, compared to the controls, in words): no significant decrease in the lumenal area
effect on HUVEC cell number (HUVECs): No significant decrease
U937 transendothelial migration (U937 cells / HUVECs [4]): 65633 ± 20412 cells per well
